Source: article PMC8863579, “Effects of pharmacological inhibition of the sodium‐dependent phosphate cotransporter 2b (NPT2b) on intestinal phosphate absorption in mouse and rat models” (Pharmacology Research & Perspectives, 2022)
Several values for one entry are separate records, joined by “and”; a condition that tells them apart may be missing. Identical values can stand only once. Like-named read-outs stand apart in the source and are kept apart here.

Tests used:
Solubility at stomach pH = type: physicochemical; details: at the pH of the stomach
intestinal NPT2b = target: T1, intestinal NPT2b (Mus musculus, UniProt Q9DBP0); assay: Acute phosphate uptake into plasma in mice; type: in vivo; details: for ED50: mouse, po, read-out: ED50, inhibition of acute phosphate uptake into plasma; for Emax, maximum inhibition of phosphate uptake into plasma: oral
T1 construct: from tissue; host or cells: intestine of live male C57BL/6 mice, oral dosing
T1 sequence (Q9DBP0 1-697): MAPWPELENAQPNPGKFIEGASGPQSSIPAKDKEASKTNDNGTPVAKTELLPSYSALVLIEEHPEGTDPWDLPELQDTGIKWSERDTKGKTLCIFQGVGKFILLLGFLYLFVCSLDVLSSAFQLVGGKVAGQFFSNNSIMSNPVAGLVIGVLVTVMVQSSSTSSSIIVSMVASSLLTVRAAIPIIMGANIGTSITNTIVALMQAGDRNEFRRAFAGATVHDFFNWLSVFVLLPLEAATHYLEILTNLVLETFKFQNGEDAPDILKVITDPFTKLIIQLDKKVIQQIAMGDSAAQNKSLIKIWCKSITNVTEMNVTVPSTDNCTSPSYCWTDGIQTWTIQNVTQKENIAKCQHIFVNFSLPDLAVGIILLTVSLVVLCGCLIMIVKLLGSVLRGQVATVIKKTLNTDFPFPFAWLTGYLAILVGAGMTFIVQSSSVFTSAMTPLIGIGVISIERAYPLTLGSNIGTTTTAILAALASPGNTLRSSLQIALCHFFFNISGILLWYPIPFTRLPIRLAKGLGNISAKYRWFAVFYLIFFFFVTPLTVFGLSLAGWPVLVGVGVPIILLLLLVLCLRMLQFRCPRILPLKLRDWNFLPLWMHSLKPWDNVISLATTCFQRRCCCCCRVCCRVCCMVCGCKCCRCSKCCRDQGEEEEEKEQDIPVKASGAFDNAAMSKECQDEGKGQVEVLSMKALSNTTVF
Procedure: Male C57BL/6 male mice (n = 7–9/group) at the age of about 8–9 weeks (21–29 g) were fasted overnight and throughout the study. Mice were dosed orally with varying doses of LY3358966 SDD dissolved in water or a PVP‐VA vehicle control. Fifteen minutes later, a radioactive phosphate dosing solution (200 µl of 16.25 mM Na2HPO4, 0.9% saline, pH 7.4 supplemented with about one million dpm of H3 ^33PO4) was given by oral gavage. This dose of phosphate was chosen because it approximates the mouse equivalent of the amount of bioavailable phosphate in a human meal which is 4 mg/kg phosphorus, or 320 mg phosphorus for an 80 kg person on a phosphate restricted diet. Fifteen minutes later, blood was collected and radioactivity in the plasma was determined by scintillation counting. The inhibition of acute phosphate uptake into plasma by LY3358966 was determined by comparing the counts in the plasma from LY3358966‐treated animals to that in the plasma of the vehicle‐treated animals. ED50 values were then determined with a 4‐parameter logistic curve fitting model using GraphPad Prism 7.04.
To test the ability of LY3358966 to inhibit intestinal NPT2b activity in mice over time, the above mice were bled again at 3 h post compound dose to determine the residual radioactivity in the plasma. At 4 h post compound dose, the animals were again dosed with phosphate using threefold more H3 ^33PO4 than used in the first oral dose. Fifteen minutes later, blood was collected and radioactivity in the plasma was used to calculate LY3358966 inhibition of phosphate uptake into plasma. For this calculation, the residual counts at 3 h were first subtracted from the final counts at 4 h. The 3‐h counts were typically <15% of the 4‐h counts.

[1] = tested on: intestinal phosphate absorption; assay: Recovery of radiolabeled phosphate in feces of rats; type: in vivo, rat; details: LY3358966 10 mg/kg
Procedure: Male Sprague Dawley rats, 260–287 g for the first study and 274–362 g for the second study, were fasted for 4 h (the first 4 h of the light cycle) then dosed with placebo, a 50 or 150 mg/kg sevelamer HCl water dispersion, LY3358966 SDD (10 mg/kg API) dissolved in water, or a combination of LY3358966 SDD and sevelamer HCl. Fifteen minutes later, the animals were dosed with radiolabeled phosphate as described above. In the first study, the animals were given free access to food, then feces were collected at 6, 24, and 48 h post radiolabeled phosphate dose. In the second study, the animals were fasted an additional 4 h, then feces, stomach, small intestine, and large intestine were individually collected. The gastrointestinal tract tissues and feces were digested overnight at 37°C in 1 N NaOH, and the recovered radioactivity was determined.

solubility (Solubility at stomach pH): minimal solubility | ED50 (intestinal NPT2b; 15 min post LY3358966 dose): 0.15 mg/kg | ED50 (intestinal NPT2b; 4 h post LY3358966 dose): 1.1 mg/kg | Emax, maximum inhibition of phosphate uptake into plasma (intestinal NPT2b; 15 min post LY3358966 dose): 74% | Emax, maximum inhibition of phosphate uptake into plasma (intestinal NPT2b; 4 h post LY3358966 dose): 79% | NPT2b inhibitor mediated recovery in feces (difference between placebo and LY3358966-treated groups) ([1]; 48 h, 10 mg/kg): 5.3% and 5.34%
Structure (SMILES): CC1(C)CN(C(=O)NCCCCO)CCN1Cc1cccc(C(=O)Nc2sc3c(c2C(=O)Nc2cc(F)c(CCc4ccc(C(=O)O)cc4)c(F)c2)CCCC3)c1 [LY3358966, 4‐[2‐[2,6‐difluoro‐4‐[[2‐[[3‐[[4‐(4‐hydroxybutylcarbamoyl)‐2,2‐dimethyl‐piperazin‐1‐yl]methyl]benzoyl]amino]‐4,5,6,7‐tetrahydrobenzothiophene‐3‐carbonyl]amino]phenyl]ethyl]benzoic acid]
33P Recovered in Feces (0-6 hrs), Mean ± SEM [1]: 0.23 ± 0.19% | 33P Recovered in Feces (6-24 hrs), Mean ± SEM [1]: 16.62 ± 1.04% | 33P Recovered in Feces (24-48 hrs), Mean ± SEM [1]: 1.44 ± 0.14% | 33P Recovered in Feces Total (0-48 hrs), Mean ± SEM ([1]; 10 mg/kg): 18.29 ± 1.04%
